Experimental data published in PMC10447463, “Data-mining unveils structure–property–activity correlation of viral infectivity enhancing self-assembling peptides” (Nature Communications, 2023).
Read-outs that look alike come from different tables or passages of the source.

Experiments:
[1] = Zeta-potential measurement; type: physicochemical; conditions: for Zeta pot. / mV: 1 mg/mL in PBS pH 7.4 from 10 mg/mL DMSO stock, 1 d RT, 60 µL diluted in 600 µL 1 mM KCl, Zetasizer Nano ZS, Smoluchowski, mean of triplicate; for Zeta-Potential / mV: Figure 6C; for Zeta-pot. / mV: zeta potential of peptide, Fig S15 source data
Procedure, shortened: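 Charge on peptide aggregates was assessed by electrophoretic mobility in 1 mM KCl, converted per Smoluchowski. Prior aggregation: 1 mg/mL, pH 7.4 PBS, 1 d, RT.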

[2] = Turbidity, derived count rate of scattered light; type: physicochemical; conditions: for Count Rate / kcps: derived count rate of scattered light at 633 nm, 173°, from zeta-potential measurement, 0.1 mg/mL in 1 mM KCl after 1 d at 1 mg/mL in PBS, turbidity / microscopic aggregation, mean of triplicate
Procedure, shortened: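 One-day room-temperature aggregation at 1 mg/mL in PBS (pH 7.4) preceded measurement; samples then went into 1 mM KCl. Triplicates per sample, two independent experiments averaged.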

[3] = test system: HIV-1 infection of TZM-bl cells; experiment: HIV-1 infectivity enhancement assay, β-galactosidase luminescence; type: cell-based
[4] = log10 of derived count rate of scattered light, Figure 6C
[5] = logarithm of count rate in kcps
[6] = log10 of infection relative to EF-C, Figure 6C
[7] = n-fold infection vs virus only, relative to that of EF-C, 1.3 µM peptide
[8] = infectivity class (low / medium / high) of each library peptide; main list in c1-c6, same classes repeated in sub-lists of sequences containing the hydrophobicity/charge patterns P+,H0,P+,H0,P0,H0,P0; P+,H0,P0,H0,P0,H0,P0; P+,H0,P0,H0
[9] = log10 of HIV-1 infection of TZM-bl cells relative to EF-C; Fig S15 source data; asymmetric std dev errors
[10] = derived count rate of scattered light
[11] = Feb2021; figures match the 1.3 µM column
[12] = Feb2021; infectivity relative to virus only
[13] = Feb2021; log10 of infectivity relative to EF-C
[14] = Feb2021; n-fold infectivity relative to EF-C
[15] = infectivity class (low / medium / high) of the peptide in the sequence-pattern analysis, Fig. S22-A4; class limits not given
[16] = derived count rate from zeta measurement, mean
[17] = derived count rate of scattered light, mean, std deviation in separate column
[18] = Feb2021 run; infectivity n-fold relative to virus alone
[19] = Feb2021 run; log10 of infectivity relative to EF-C
[20] = Feb2021 run; n-fold infectivity relative to EF-C
[21] = infectivity enhancement relative to EF-C (=1); Feb2021 run
[22] = infectivity n-fold relative to virus only; Feb2021 run
[23] = log10 of infectivity relative to EF-C; Feb2021 run

| Substance | Zeta-Potential / mV ([1]; mean) [mV] | Count Rate / kcps [2] [kcps] | Log10 Count Rate [2, 4] | Log10 Count Rate [2, 5] | Log10 Infection Rel EF-C [3, 6] | Inf. rel. EF-C [3, 7] | Zeta-pot. / mV [1] [mV] | infectivity [3, 8] | Log10 Inf. rel. to EF-C [3, 9] | Zeta Pot. / mV [1] [mV] | Zeta category ( +1 = if > 4 mV;-1 = if < -4 mV; 0 = -4mV to 4 mV) [1] | Zeta Count Rate Category ([2]; category 1 / 0, no key given) | Zeta Count Rate / kcps [2, 10] [kcps] | Absolute Infectivity / RLU /s (Feb2021) [3, 11] [RLU /s] | n-fold to virus (Feb2021) [3, 12] | Log10 of Rel to EFC (Feb2021) [3, 13] | Rel-to EFC (Feb-2021) [3, 14] | other results |
| --- | --- | --- | --- | --- | --- | --- | --- | --- | --- | --- | --- | --- | --- | --- | --- | --- | --- | --- |
| RIRFHIW | 0.107 | 12.4 | 1.093 | 1.093 | -1.984 | 0.01 | – | – | – | – | – | – | – | – | – | – | – | Zeta pot. / mV [1]: 0.107 mV |
| KIKIQINAWQ [JR3-II] | – | – | – | – | – | – | 13.1 | medium | -0.2703 | – | – | – | – | – | – | – | – | Zeta category ( +1 = if > 4 mV;-1 = if < -4 mV; 0 = -4mV to 4 mV) ([1]; FigS26): 1 (+1 = if > 4 mV) |
| KLKLKLQL [TG16] | – | – | – | – | – | – | 8.39 | low | -1.009 | 8.39 | 1 (+1 = if > 4 mV) | 0 | 42.87 | 2097 | 4.111 | -1.009 | 0.09784 | infectivity [3, 15]: low |
| KIKIQII [TG1 / (KM4)] | – | – | – | – | – | – | 5.61 | low | -1.729 | 5.61 | 1 (+1 = if > 4 mV) | 1 | 1039 | 400 | 0.7843 | -1.729 | 0.01867 | Zeta Pot. / mV ([1]; mean, Std in separate column): 5.61 mV; Zeta Count Rate / kcps [2, 16]: 1039 kcps; Zeta Count Rate / kcps [2, 17]: 1039 kcps; Zeta Count Rate Category ([2]; key not given): 1; n-fold to virus (Feb2021) [3, 18]: 0.7843; Log10 of Rel to EFC (Feb2021) [3, 19]: -1.729; Rel-to EFC (Feb-2021) [3, 20]: 0.01867; infectivity [3, 15]: low; Rel-to EFC (Feb-2021) [3, 21]: 0.01867; n-fold to virus (Feb2021) [3, 22]: 0.7843; Log10 of Rel to EFC (Feb2021) [3, 23]: -1.729 |
| KYKYQY [KB1] | – | – | – | – | – | – | -4.2 | low | -1.9887 | -4.2 | -1 (-1 = if < -4 mV) | 0 | 31.53 | 230 | 0.4313 | -1.989 | 0.01026 | – |
| CKIWIQIY | 4.537 | 1842.4 | 3.265 | 3.265 | -0.2415 | 0.57 | – | – | – | – | – | – | – | – | – | – | – | – |
| KVKVQVV [TG2] | – | – | – | – | – | – | -7.92 | low | -2.04 | -7.92 | -1 (-1 = if < -4 mV) | 0 | 27.73 | 213.3 | 0.3832 | -2.04 | 0.009121 | Zeta Pot. / mV ([1]; mean, Std in separate column): -7.92 mV; Zeta Count Rate / kcps [2, 16]: 27.73 kcps; Zeta Count Rate Category ([2]; key not given): 0; infectivity [3, 15]: low; Rel-to EFC (Feb-2021) [3, 21]: 0.009121; n-fold to virus (Feb2021) [3, 22]: 0.3832; Log10 of Rel to EFC (Feb2021) [3, 23]: -2.04 |
| KIKIQIII [TG7] | – | – | – | – | – | – | 19.8 | medium | -0.4521 | 19.8 | 1 (+1 = if > 4 mV) | 0 | 94.97 | 8260 | 14.84 | -0.452 | 0.3531 | Zeta Pot. / mV ([1]; mean, Std in separate column): 19.8 mV; Zeta Count Rate / kcps [2, 16]: 94.97 kcps; Zeta Count Rate / kcps [2, 17]: 94.97 kcps; Zeta Count Rate Category ([2]; key not given): 0; n-fold to virus (Feb2021) [3, 18]: 14.84; Log10 of Rel to EFC (Feb2021) [3, 19]: -0.452; Rel-to EFC (Feb-2021) [3, 20]: 0.3531; Rel-to EFC (Feb-2021) [3, 21]: 0.3531; n-fold to virus (Feb2021) [3, 22]: 14.84; Log10 of Rel to EFC (Feb2021) [3, 23]: -0.452 |
| CKIKIWIW | 19.13 | 3321 | 3.521 | 3.521 | -0.06382 | 0.86 | – | – | – | – | – | – | – | – | – | – | – | – |
| KAQCTLP | -8.503 | 97.27 | 1.988 | 1.988 | -1.153 | 0.07 | – | – | – | – | – | – | – | – | – | – | – | Zeta pot. / mV [1]: -8.503 mV; Inf. rel. EF-C ([3]; HIV-1 infection relative to EF-C; Fig 23 plot, panels A and B; mean of 3 values): 0.07031; Inf. rel. EF-C ([3]; HIV-1 infection relative to EF-C; Fig 23 plot, single data point, replicate 1): 0.07607; Inf. rel. EF-C ([3]; HIV-1 infection relative to EF-C; Fig 23 plot, single data point, replicate 2): 0.09243; Inf. rel. EF-C ([3]; HIV-1 infection relative to EF-C; Fig 23 plot, single data point, replicate 3): 0.04244 |
| NMWQKIKQII [JG8] | – | – | – | – | – | – | -0.213 | low | -1.5971 | – | – | – | – | – | – | – | – | Zeta category ( +1 = if > 4 mV;-1 = if < -4 mV; 0 = -4mV to 4 mV) ([1]; FigS26): 0 (0 = -4mV to 4 mV) |
| KIWIWIW | 11.33 | 6186.6 | 3.791 | 3.791 | -0.2793 | 0.53 | – | – | – | – | – | – | – | – | – | – | – | – |
